Patent US4162253A, “Acaricidal agents” (Pfizer Inc., priority 1975, dated 1979)

System: Adult Boophilus microplus
Test: Topical application test on fully engorged adult Boophilus microplus ticks; overall reduction in anticipated reproduction (eggs laid and hatching)
Assay type: in vivo
Details: Rhipicephalus microplus, read-out: In Vitro Activity (topical application) vs. Adult Boophilus microplus % Effect; for inhibition at 0.5 µg/tick: 0.5 μg/tick; for inhibition at 1 µg/tick: 1 μg/tick; for inhibition at 2 µg/tick: 2 μg/tick; for inhibition at 4 µg/tick: 4 μg/tick; for inhibition at 8 µg/tick: 8 μg/tick; for inhibition at 10 µg/tick: 10 μg/tick
Experimental: In one test, five freshly collected, fully engorged Boophilus microplus adult ticks are used for each acaricidal compound. Using a micro-pipette, 10 micro-liters of a solution containing 10 micro-grams of the acaricidal compound in ethanol or acetone, is applied to the dorsal surface of each of the ticks. The treated ticks are placed in weighted 1"×2" glass vials, weighted and stored at 26° C. and 80% relative humidity in plastic boxes for two weeks. The ticks are then removed from the vials and the vials weighted to give the weight of eggs laid by the ticks. Any reduction in the egg laying of the treated ticks is caculated as a percentage of the eggs laid by untreated control ticks.
The eggs are returned to the incubator for a further 3 weeks after which time the percentage of eggs hatching is estimated.
The percentage effect is calculated as the overall reduction in the anticipated reproduction of the ticks using the weight of eggs laid and the percentage of eggs hatching.
The test may be repeated using smaller amounts of the acaricidal compound for sufficiently active compounds.
The activity of many of the compounds of the Examples detailed hereinafter against the tick Boophilus microplus has been determined.

| Structure (SMILES) | inhibition at 0.5 µg/tick | inhibition at 1 µg/tick | inhibition at 2 µg/tick | inhibition at 4 µg/tick | inhibition at 8 µg/tick | inhibition at 10 µg/tick |
| --- | --- | --- | --- | --- | --- | --- |
| CCCCCCCCCCCCCCCC[N+]1=C2SC3=C(CCCC3)N2CCCC1 [Example 35, 9-hexadecyl-2,3-tetramethylene-5,6,7,8-tetrahydrothiazolo[3,2-a][1,3] diazepinium bromide] | 0% | 8% | 13% | 70% | 100% | 100% |
| CCCCCCCCCCCCCCCC[N+]1=C2SC(C)=C(c3ccccc3)N2CC1 [Example 42, 7-cetyl-2-methyl-3-phenyl--5,6-dihydro-imidazo[2,1-b]thiazolium bromide] | 6% | 52% | 50% | 90% | 100% | 100% |
| CCCCCCCCCCCC[N+]1=C2SC=C(C)N2CCCC1 [Example 38] |  |  |  |  |  | 30% |
| CCCCCCCCCCCCCCCCC[N+]1=C2SC=C(c3ccccc3)N2CCCC1 [Example 32] | 0% | 12% | 66% | 94% | 95% | 100% |
| CCCCCCCCCCCCCCCCC[N+]1=C2SC=C(C)N2CCCC1 [Example 30] |  | 13% | 47% | 56% | 95% | 100% |
| CCCCCCCCCCCCCC[N+]1=C2SC=C(C)N2CCC1 [Example 5] |  | 0% | 4% | 32% | 63% | 65% |
| CCCCCCCCCCCCCCCCCC[N+]1=C2SC=C(c3ccccc3)N2CCCC1 [Example 22] |  |  |  |  |  | 57% |
| CCCCCCCCCCCCCCCC[N+]1=C2SC=C(c3ccccc3)N2CCC1 [Example 3] | 2% | 13% | 26% | 90% | 97% | 100% |
| CCCCCCCCCCCC[N+]1=C2SC=C(c3ccccc3)N2CCCC1 [Example 37] |  |  |  |  |  | 87% |
| CCCCCCCCCCCCCC[N+]1=C2SC(C)=C(c3ccccc3)N2CCC1 [Example 13] | 0% | 6% | 21% | 99.4% | 99.9% | 100% |
| CCCCCCCCCCCCCCCC[N+]1=C2SC(c3ccccc3)=CN2CCCC1 [Example 34] |  |  |  |  |  | 32% |
| CCCCCCCCCCCCCC[N+]1=C2SC(C)=C(CC)N2CCC1 [Example 4] |  |  | 12% | 75% | 100% | 83% |
